Results reported in patent publication US12172992B2, “Pyrimidines for degrading Bruton's tyrosine kinase” (AbbVie Inc., priority 2022, dated 2024).

Key:
BTK in mouse bone marrow = BTK in mouse bone marrow (Mus musculus (Mouse), UniProt P35991); assay: Mouse Bone Marrow Assay (MSD ELISA of BTK degradation in bone marrow); assay type: in vivo; details: female C57BL/6J mice, single dose of Dose A, bone marrow collected after 24 hours
Protocol: Female C57BL/6J mice (Jackson Laboratories) were used for this study. Compounds or vehicle/control were prepped with EtOH; PEG-400; Phosal 53 MCT (10:30:60, v/v). Four mice were tested per compound or vehicle/control. On Day 1, mice were administered a single dose of Dose A. On Day 2 (after 24 hours), tissue (bone marrow) was collected from one hind leg per mouse.
An MSD (Meso Scale Discovery) ELISA (enzyme-linked immunosorbent assay) based assay was used to determine BTK degradation in mouse bone marrow. The following materials and equipment were used: 10% NP40 solution (nonionic polyoxyethylene surfactant, ThermoFisher, cat no. 28324); protease inhibitor mini tablet (Roche, cat no. 05 892 970 001); PhosphoSTOP™ tablet (Roche, cat no. 04 906 837 001); Pierce™ BCA Protein Assay Kit (Thermofisher, Cat No. 23225); Precellys® 2 mL lysing tube with 2.8 mm beads (VWR, cat no. 10032-756); Bertin Precellys® 24/Cryolys® cooling system; 96-well MSD streptavidin pre-coated plates (MSD, cat no. L15SA-1); MSD Blocker A (MSD, cat no. R93BA-4); capture antibody, biotinylated BTK mAb (BD Biosciences, cat no. 624008; custom order); primary detection antibody, BTK RpAb (rabbit polyclonal antibody, CST, cat no. 8547S, D3H5 clone); secondary detection antibody, anti-Rabbit-Sulfo-Tag (MSD, cat no. R32AB-1); read Buffer, 4× (MSD, cat no. R92TC-1); recombinant BTK protein (Thermofisher, cat no. PR5442A); MSD Tris Wash Buffer (10×) (MSD, cat no. R61TX-1); PBS (phosphate-buffered saline); deionized water (diH2O); Lysis Buffer [0.2% NP40 in PBS+Protease Inhibitor tablet (1 tablet/10 mL)+PhosphoSTOP tablet (1 tablet/10 mL)]; 3% MSD Blocker A [MSD Blocker A+450 mL diH2O+50 mL]; and 10×MSD Tris Wash Buffer.
Lysis buffer [(PBS+0.2% NP40+PI (protease inhibitor)+PhosphoSTOP)] was prepared and put on ice until it was fully cold. Ice cold lysis buffer […] was added to each Precellys® tube containing beads and bone marrow sample. Sample tubes were transferred into Precellys® machine and homogenized using 5000 rpm—2×20 seconds. The sample lysates were centrifuged at 14,000 rpm for 20 minutes at 4° C. after homogenizing.
The protein concentration was determined using Pierce™ BCA Protein Assay Kit following manufacturer's recommended protocol. The protein normalized working solution was prepared, using 30 μg protein per sample lysate for assay.
A 300 ng/ml working stock solution of recombinant BTK protein in lysis buffer was prepared, and the sample was serially diluted at 3-fold dilution (10-point assay, highest concentration was 300 ng/mL and lowest concentration was 0.015 ng/mL)
MSD plate coating: Coating antibody (biotinylated-BTK mAb) stock solution was prepared at 1 μg/mL in PBS buffer. 50 μL/well capture antibody (Biotinylated BTK mAb) solution was added, and the plates were shaken gently at ambient temperature for two hours. The plates were washed 3 times with 1×MSD Tris Wash Buffer in a plate washer (300 μL/well), and the plates were blocked with 3% MSD Blocker A (150 μL/well). The plates were incubated for an additional 1-2 hours at ambient temperature with gentle shaking. The plates were washed 3 times with 1×MSD wash buffer using plate washer. Bone marrow lysates (30 μg) at a final volume of 50 μL/well were added into the plates. The serially diluted standard samples were added to the same plates at a final volume of 50 μL/well. The plates were incubated overnight at 4° C. with gentle shaking.
The plates were washed three times with 1×MSD wash buffer (prepared from 10× concentration buffer) using plate washer. Primary detection antibody at 50 μL/well was added (BTK RpAb; 1:1000 dilution in 1% MSD Blocker A). The plates were incubated for two hours at ambient temperature with gentle shaking. The plates were washed three times with 1×MSD wash buffer using plate washer. Anti-Rabbit-SULFO-TAG secondary antibodies (50 μl/well) were added, 1:500 diluted in 1% MSD Blocker A, and the plates were incubated for one to two hours at ambient temperature. […]

[1] = test system: TCL1-driven CLL bearing BTK^C481S mutation; assay: TCL1-driven CLL bearing BTK C481S mutation in C57BL/6 mice, circulating leukemia burden; assay type: in vivo, mouse
Excerpt: EIA-TCL1 CLL transgenic mice (Crogen Pharmaceuticals LLC) were crossed with BTK^C481S knock-in mice (AbbVie) to generate Eμ-TCL1 transgenic mice carrying the BTK^C481S mutation. The leukemic splenocytes from these BTK^C481S Eμ-TCL1 transgenic mice (Passage 1) were transplanted intravenously into C57BL/6 mice, leading to CLL development in the peripheral blood and spleen. When circulating CLL burden (CD5+CD19+ cells as described below) in the recipient mice reached over 90%, their splenocytes (Passage 2) containing high CLL burden were cryopreserved and used for CLL efficacy studies. […]
To determine the absolute/total leukocyte numbers, complete blood counts were determined for each mouse using the Genesis™ veterinary hematology analyzer (Oxford Science Inc.).
Cells isolated from murine peripheral blood mononuclear cells (PMBCs) were collected to determine antigen expression. […] Cells were gated on CD45+, and thereafter the percentage of cells that were CD5+CD19+ from that subset was calculated. […]
Whole blood was collected weekly post tumor implantation via submandibular cheek bleeding. Circulating leukemic burden was calculated by multiplying absolute/total leukocyte count with the percentage of the leukocytes have the immunophenotype CD19^+CD5^+. […]

Sequence of BTK in mouse bone marrow (P35991 whole entry): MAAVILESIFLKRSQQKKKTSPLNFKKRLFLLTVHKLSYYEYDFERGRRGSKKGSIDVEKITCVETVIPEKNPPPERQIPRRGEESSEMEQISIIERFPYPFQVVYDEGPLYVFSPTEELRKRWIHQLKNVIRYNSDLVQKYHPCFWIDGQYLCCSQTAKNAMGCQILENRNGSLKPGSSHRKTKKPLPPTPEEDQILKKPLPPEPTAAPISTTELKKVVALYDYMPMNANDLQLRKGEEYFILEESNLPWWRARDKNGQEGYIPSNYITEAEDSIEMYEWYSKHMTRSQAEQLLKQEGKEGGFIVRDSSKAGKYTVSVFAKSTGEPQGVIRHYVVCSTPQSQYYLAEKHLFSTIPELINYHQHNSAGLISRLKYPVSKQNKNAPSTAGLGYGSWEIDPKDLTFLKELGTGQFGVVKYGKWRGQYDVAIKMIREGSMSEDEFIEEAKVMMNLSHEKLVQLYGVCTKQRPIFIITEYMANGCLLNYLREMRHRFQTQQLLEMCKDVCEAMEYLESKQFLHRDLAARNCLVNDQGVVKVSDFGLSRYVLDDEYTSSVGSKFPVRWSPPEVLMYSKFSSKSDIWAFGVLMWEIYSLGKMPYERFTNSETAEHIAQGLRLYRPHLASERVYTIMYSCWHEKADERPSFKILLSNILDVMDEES

- Mouse Bone Marrow (%) (% remaining BTK, vehicle versus treated) (BTK in mouse bone marrow): 11%
Compound: Cc1cc(-c2cc(Nc3ccc(N4CCN(CCc5ccc(N6CCC(=O)NC6=O)cc5)C[C@@H]4C)cn3)ncn2)ccc1[C@@H](C)NC(=O)c1nc(C(C)(C)C)no1 [Example 1, 3-tert-butyl-N-[(1R)-1-{4-[6-({5-[(2S)-4-{2-[4-(2,4-dioxo-1,3-diazinan-1-yl)phenyl]ethyl}-2-methylpiperazin-1-yl]pyridin-2-yl}amino)pyrimidin-4-yl]-2-methylphenyl}ethyl]-1,2,4-oxadiazole-5-carboxamide]
- CLL burden control (no increase from the initial tumor burden) ([1]; QD for 19 days, at Dosage 3 and Dosage 4): Complete CLL burden control
- circulating leukemia burden (CD19+CD5+ CLL cells per μL) ([1]; once daily (QD) for 19 days, Dosage 1-4, FIG. 1): controlled circulating leukemia burden of the TCL1-driven CLL bearing BTK^C481S mutation in C57BL/6 mice in a dose-dependent manner
